Here are results for 17 compounds from the NIST ThermoML archive (doi:10.1021/je060142u).

A short description of the data set: activity coefficient (dimensionless); of the first substance listed, at infinite dilution; xn = mol fraction of the nth substance listed. As to conditions: 101 kPa, Liquid, Chromatography, x1 = 0.

The structures appear in SMILES notation. ± gives the expanded uncertainty stated by the source.

With `Cc1ccccc1C` [1,2-dimethylbenzene] + CCCCn1cc[n+](C)c1.F[B-](F)(F)F, the activity coefficient (303.15 K) turned out to be 4.2 ± 0.36; the activity coefficient (313.15 K) worked out at 4.18 ± 0.36; the activity coefficient (323.15 K) is 4.16 ± 0.36; the activity coefficient (333.15 K) is 4.16 ± 0.36; the activity coefficient (343.15 K) was determined as 4.14 ± 0.36.

In the case of `Cc1cccc(C)c1` [1,3-dimethylbenzene] + CCCCn1cc[n+](C)c1.F[B-](F)(F)F, the activity coefficient (303.15 K) was determined as 5.25 ± 0.45; the activity coefficient (313.15 K) is 5.24 ± 0.45; the activity coefficient (323.15 K) turned out to be 5.23 ± 0.45; the activity coefficient (333.15 K) is 5.23 ± 0.45; the activity coefficient (343.15 K) was 5.22 ± 0.45.

On to `Cc1ccc(C)cc1` [1,4-dimethylbenzene] + CCCCn1cc[n+](C)c1.F[B-](F)(F)F, for which the activity coefficient turned out to be 4.97 ± 0.43 (303.15 K); 5.15 ± 0.44 (313.15 K); 5.28 ± 0.46 (323.15 K); 5.33 ± 0.46 (333.15 K); 5.47 ± 0.47 (343.15 K).

As for `CC(C)CC(C)(C)C` [2,2,4-trimethylpentane] + CCCCn1cc[n+](C)c1.F[B-](F)(F)F, the activity coefficient is, setting by setting: (303.15 K) 92.7 ± 8; (313.15 K) 88.6 ± 7.7; (323.15 K) 83.8 ± 7.3; (333.15 K) 79.5 ± 6.9; (343.15 K) 75.5 ± 6.5.

As to `c1ccccc1` [benzene] + CCCCn1cc[n+](C)c1.F[B-](F)(F)F, the activity coefficient is, setting by setting: (303.15 K) 1.74 ± 0.15; (313.15 K) 1.76 ± 0.15; (323.15 K) 1.77 ± 0.15; (333.15 K) 1.8 ± 0.15; (343.15 K) 1.83 ± 0.16.

For `C1CCCCC1` [cyclohexane] + CCCCn1cc[n+](C)c1.F[B-](F)(F)F, the activity coefficient is 32.4 ± 2.8 (303.15 K); 30.2 ± 2.6 (313.15 K); 28.3 ± 2.5 (323.15 K); 26.9 ± 2.3 (333.15 K); 24.6 ± 2.1 (343.15 K).

As to `C1=CCCCC1` [cyclohexene] + CCCCn1cc[n+](C)c1.F[B-](F)(F)F, the activity coefficient runs as follows: (303.15 K) 14.1 ± 1.2; (313.15 K) 13.5 ± 1.2; (323.15 K) 12.9 ± 1.1; (333.15 K) 12.4 ± 1.1; (343.15 K) 11.9 ± 1.

`CCCCCCCCCC` [decane] + CCCCn1cc[n+](C)c1.F[B-](F)(F)F: the activity coefficient was 414 ± 36 (303.15 K); 335 ± 29 (313.15 K); 320 ± 28 (323.15 K); 296 ± 26 (333.15 K); 279 ± 24 (343.15 K).

On to `CCc1ccccc1` [ethylbenzene] + CCCCn1cc[n+](C)c1.F[B-](F)(F)F, for which the activity coefficient reads like this: (303.15 K) 5.61 ± 0.48; (313.15 K) 5.54 ± 0.48; (323.15 K) 5.49 ± 0.47; (333.15 K) 5.42 ± 0.47; (343.15 K) 5.37 ± 0.46.

For `CCCCCCC` [heptane] + CCCCn1cc[n+](C)c1.F[B-](F)(F)F, the activity coefficient by setting is: (303.15 K) 92.5 ± 8; (313.15 K) 86.7 ± 7.5; (323.15 K) 81.7 ± 7.1; (333.15 K) 78.9 ± 6.8; (343.15 K) 71.5 ± 6.2.

On to `CCCCCC` [hexane] + CCCCn1cc[n+](C)c1.F[B-](F)(F)F, for which the activity coefficient was found to be 60.8 ± 5.3 (303.15 K); 57.5 ± 5 (313.15 K); 54.2 ± 4.7 (323.15 K); 50.5 ± 4.4 (333.15 K); 47 ± 4.1 (343.15 K).

With `CC1CCCCC1` [methylcyclohexane] + CCCCn1cc[n+](C)c1.F[B-](F)(F)F, the activity coefficient reads like this: (303.15 K) 48.7 ± 4.2; (313.15 K) 45.6 ± 3.9; (323.15 K) 42.4 ± 3.7; (333.15 K) 39.8 ± 3.5; (343.15 K) 37.3 ± 3.2.

On to `CCCCCCCCC` [nonane] + CCCCn1cc[n+](C)c1.F[B-](F)(F)F, for which the activity coefficient reads like this: (303.15 K) 224 ± 20; (313.15 K) 193 ± 17; (323.15 K) 187 ± 16; (333.15 K) 179 ± 16; (343.15 K) 170 ± 15.

As to `CCCCCCCC` [octane] + CCCCn1cc[n+](C)c1.F[B-](F)(F)F, the activity coefficient runs as follows: (303.15 K) 139 ± 12; (313.15 K) 136 ± 12; (323.15 K) 127 ± 11; (333.15 K) 119 ± 10; (343.15 K) 111 ± 9.6.

Regarding `CCCCC` [pentane] + CCCCn1cc[n+](C)c1.F[B-](F)(F)F, the activity coefficient is 40.7 ± 3.5 (303.15 K); 39.7 ± 3.4 (313.15 K); 38.1 ± 3.3 (323.15 K); 36.3 ± 3.1 (333.15 K); 35.8 ± 3.1 (343.15 K).

With `C=Cc1ccccc1` [styrene] + CCCCn1cc[n+](C)c1.F[B-](F)(F)F, the activity coefficient is, setting by setting: (303.15 K) 2.29 ± 0.2; (313.15 K) 2.29 ± 0.2; (323.15 K) 2.34 ± 0.2; (333.15 K) 2.41 ± 0.21; (343.15 K) 2.48 ± 0.21.

Turning to `Cc1ccccc1` [toluene] + CCCCn1cc[n+](C)c1.F[B-](F)(F)F, the activity coefficient is, setting by setting: (303.15 K) 2.91 ± 0.25; (313.15 K) 2.94 ± 0.25; (323.15 K) 2.95 ± 0.25; (333.15 K) 2.99 ± 0.26; (343.15 K) 3.03 ± 0.26.
